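All cell lines were grown in 96-well plates and treated with compound for 48 hours. GI50 marks 50% less growth.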 Active and inactive are the calls of the source. Rule as the data show it: active = GI50 up to about 1.1 µM and inactive = higher.
Tests used:
Assay in all cases: NCI-60 cell line screen, 48 h
[1] = test system: RXF 631
[2] = test system: M19-MEL
[3] = test system: KM-20L2
[4] = test system: XF498
[5] = test system: DLD-1
[6] = test system: DMS-114
[7] = test system: LXFL 529
[8] = test system: SNB-78
[9] = test system: HOP-18

Cc1ccc(NC(=O)C(=O)Cc2nc3ccccc3o2)c(C)c1
GI50 [1]: > 100 µM (inactive) | GI50 [2]: > 100 µM (inactive) | GI50 [3]: > 100 µM (inactive) | GI50 [4]: > 100 µM (inactive) | GI50 [5]: > 100 µM (inactive) | GI50 [6]: > 100 µM (inactive) | GI50 [7]: > 100 µM (inactive) | GI50 [8]: > 100 µM (inactive)

O=c1/c(=C/c2c(O)ccc3ccccc23)sc2nc3ccccc3n12
GI50 [1]: > 100 µM (inactive) | GI50 [2]: > 100 µM (inactive) | GI50 [3]: > 100 µM (inactive) | GI50 [4]: > 100 µM (inactive) | GI50 [5]: > 100 µM (inactive) | GI50 [6]: > 100 µM (inactive) | GI50 [7]: > 100 µM (inactive) | GI50 [8]: > 100 µM (inactive) | GI50 [9]: > 100 µM (inactive)

O=[PH](O)c1ccsc1
GI50 [1]: > 100 µM (inactive) | GI50 [2]: > 100 µM (inactive) | GI50 [3]: > 100 µM (inactive) | GI50 [5]: > 100 µM (inactive) | GI50 [6]: > 100 µM (inactive) | GI50 [7]: > 100 µM (inactive) | GI50 [9]: > 100 µM (inactive)

COc1cc(C(C#N)NNc2nc(C)cc(O)n2)cc(OC)c1OC (stereo not drawn)
GI50 [2]: > 100 µM (inactive) | GI50 [3]: > 100 µM (inactive) | GI50 [5]: > 100 µM (inactive) | GI50 [7]: > 100 µM (inactive) | GI50 [8]: > 100 µM (inactive) | GI50 [9]: > 100 µM (inactive)

COc1ccc(/C=C/CN(C)CCc2ccccc2)cc1OC
GI50 [2]: > 100 µM (inactive) | GI50 [3]: 42.3 µM (inactive) | GI50 [6]: 77.4 µM (inactive) | GI50 [7]: 62.1 µM (inactive) | GI50 [8]: > 100 µM (inactive)

CNC(=O)CN(CC(N)=O)C(=O)NC
GI50 [1]: > 100 µM (inactive) | GI50 [2]: > 100 µM (inactive) | GI50 [3]: > 100 µM (inactive) | GI50 [4]: > 100 µM (inactive) | GI50 [5]: > 100 µM (inactive) | GI50 [7]: > 100 µM (inactive) | GI50 [8]: > 100 µM (inactive)

O=C(CCc1n[nH]c(=S)o1)Nc1cc(Cl)c(Cl)cc1Cl
GI50 [1]: 44.6 µM (inactive) | GI50 [2]: > 100 µM (inactive) | GI50 [3]: 45.8 µM (inactive) | GI50 [5]: 29 µM (inactive) | GI50 [6]: 41.3 µM (inactive) | GI50 [7]: 44.8 µM (inactive) | GI50 [8]: > 100 µM (inactive) | GI50 [9]: 58.7 µM (inactive)

COc1cccc2ccc3c(c12)C(=O)OC31CCc2c(C)cccc21 (stereo not drawn)
GI50 [2]: 15.5 µM (inactive) | GI50 [3]: 15 µM (inactive) | GI50 [4]: 14.4 µM (inactive) | GI50 [5]: 8.79 µM (inactive) | GI50 [6]: 8.67 µM (inactive) | GI50 [7]: 15 µM (inactive) | GI50 [8]: 39.1 µM (inactive) | GI50 [9]: > 31.6 µM (inactive)

O=C1CCC2CCc3cccc4oc1c2c34 (stereo not drawn)
GI50 [2]: > 100 µM (inactive) | GI50 [3]: > 100 µM (inactive) | GI50 [4]: > 100 µM (inactive) | GI50 [5]: > 100 µM (inactive) | GI50 [6]: > 100 µM (inactive) | GI50 [7]: > 100 µM (inactive) | GI50 [8]: > 100 µM (inactive) | GI50 [9]: > 100 µM (inactive)

C=C1C(C(=O)O)C1C(=O)O (stereo not drawn)
GI50 [2]: > 100 µM (inactive) | GI50 [3]: > 100 µM (inactive) | GI50 [4]: > 100 µM (inactive) | GI50 [5]: > 100 µM (inactive) | GI50 [6]: > 100 µM (inactive) | GI50 [8]: > 100 µM (inactive) | GI50 [9]: > 100 µM (inactive)

O=C(CN(c1ccccc1)c1ccccc1)n1nnc2ccccc21
GI50 [2]: 20.6 µM (inactive) | GI50 [3]: 36.4 µM (inactive) | GI50 [5]: 76.2 µM (inactive) | GI50 [6]: 29.3 µM (inactive) | GI50 [7]: 70.6 µM (inactive) | GI50 [8]: 47.4 µM (inactive)

O=C1NCCS(=O)(=O)N2CCC[C@@H]12
GI50 [1]: > 100 µM (inactive) | GI50 [2]: > 100 µM (inactive) | GI50 [3]: > 100 µM (inactive) | GI50 [5]: > 100 µM (inactive) | GI50 [6]: > 100 µM (inactive) | GI50 [7]: > 100 µM (inactive) | GI50 [8]: > 100 µM (inactive) | GI50 [9]: > 100 µM (inactive)

CC(C)CC(NC(=O)OC(C)(C)C)C(=O)Nc1ccc(Nc2nc(F)nc(-c3c4ccccc4c4n3CCS4)n2)cc1 (stereo not drawn)
GI50 [3]: 18.3 µM (inactive) | GI50 [4]: 25.2 µM (inactive) | GI50 [5]: 20 µM (inactive) | GI50 [6]: 20.1 µM (inactive) | GI50 [7]: 19.5 µM (inactive) | GI50 [8]: 21.2 µM (inactive) | GI50 [9]: 24.4 µM (inactive)

O=C(O)CCSC(=O)Nc1cccc([N+](=O)[O-])c1
GI50 [5]: 72.1 µM (inactive) | GI50 [6]: > 100 µM (inactive) | GI50 [7]: > 100 µM (inactive) | GI50 [8]: > 100 µM (inactive)

CCOc1ccc([Se][Se]c2ccc(OCC)cc2)cc1
GI50 [1]: 44.5 µM (inactive) | GI50 [2]: 25.6 µM (inactive) | GI50 [3]: > 100 µM (inactive) | GI50 [5]: > 100 µM (inactive) | GI50 [6]: 20.7 µM (inactive) | GI50 [7]: 26 µM (inactive) | GI50 [8]: 32.7 µM (inactive) | GI50 [9]: > 100 µM (inactive)

CSc1ncnc2c1CCN2
GI50 [2]: > 100 µM (inactive) | GI50 [6]: > 100 µM (inactive) | GI50 [7]: > 100 µM (inactive) | GI50 [8]: > 100 µM (inactive)

CCOC(=O)C(NC(=O)c1nc[nH]c1[N+](=O)[O-])C(C)C (stereo not drawn)
GI50 [2]: > 100 µM (inactive) | GI50 [4]: 19.9 µM (inactive) | GI50 [5]: 25 µM (inactive) | GI50 [6]: > 100 µM (inactive) | GI50 [7]: 74.3 µM (inactive)

CCOC(=O)C1Sc2ccccc2N=C1C (stereo not drawn)
GI50 [2]: > 100 µM (inactive) | GI50 [3]: > 100 µM (inactive) | GI50 [4]: > 100 µM (inactive) | GI50 [5]: > 100 µM (inactive) | GI50 [6]: > 100 µM (inactive) | GI50 [7]: > 100 µM (inactive) | GI50 [8]: > 100 µM (inactive) | GI50 [9]: > 100 µM (inactive)

COC(=O)C(=O)C(C(=O)OC)C(=O)C(=O)Nc1cc(Cl)c(C)cc1S(=O)(=O)O (stereo not drawn)
GI50 [2]: > 100 µM (inactive) | GI50 [3]: > 100 µM (inactive) | GI50 [4]: > 100 µM (inactive) | GI50 [5]: > 100 µM (inactive) | GI50 [6]: > 100 µM (inactive) | GI50 [7]: > 100 µM (inactive) | GI50 [8]: > 100 µM (inactive) | GI50 [9]: > 100 µM (inactive)

O=C(Nc1ccc(Cl)cc1)c1cccc([N+](=O)[O-])c1O
GI50 [2]: 2.8 µM (inactive) | GI50 [3]: 4.43 µM (inactive) | GI50 [4]: 2.64 µM (inactive) | GI50 [5]: 3.18 µM (inactive) | GI50 [6]: 3.1 µM (inactive) | GI50 [7]: 3.1 µM (inactive) | GI50 [8]: 4.27 µM (inactive) | GI50 [9]: 0.53 µM (active)

COC(=O)C12C3C4C5(C(=O)OC)C(C1C35C(=O)N(C(C)C)C(C)C)C42C(=O)N(C(C)C)C(C)C (stereo not drawn)
GI50 [2]: > 47.8 µM (inactive) | GI50 [3]: > 50 µM (inactive) | GI50 [5]: > 25.6 µM (inactive) | GI50 [6]: > 29.9 µM (inactive) | GI50 [7]: > 50 µM (inactive) | GI50 [8]: > 50 µM (inactive) | GI50 [9]: > 50 µM (inactive)

COc1cc2c(cc1O)[C@H](C)C(c1ccccc1OC)O2 (stereo partly drawn)
GI50 [2]: 3.77 µM (inactive) | GI50 [3]: 5.07 µM (inactive) | GI50 [4]: 5.19 µM (inactive) | GI50 [5]: 4.75 µM (inactive) | GI50 [6]: 2.8 µM (inactive) | GI50 [7]: 8 µM (inactive) | GI50 [8]: 5.78 µM (inactive) | GI50 [9]: > 100 µM (inactive)

CC(C)C1NC(=O)[C@H](C)OC(=O)[C@@H](C(C)C)NC(=O)[C@@H](C)OC(=O)C(C(C)C)NC(=O)[C@H](C)OC1=O (stereo partly drawn)
GI50 [2]: > 55.5 µM (inactive) | GI50 [3]: 56.4 µM (inactive) | GI50 [4]: 94 µM (inactive) | GI50 [5]: > 59.6 µM (inactive) | GI50 [6]: > 63.8 µM (inactive) | GI50 [7]: > 66.2 µM (inactive) | GI50 [8]: > 100 µM (inactive) | GI50 [9]: > 100 µM (inactive)

CCCN(CCC)C(=O)Cc1c2n(c3ccccc13)CCCc1ccccc1-2
GI50 [2]: 14.8 µM (inactive) | GI50 [3]: 14.4 µM (inactive) | GI50 [4]: 15.1 µM (inactive) | GI50 [5]: 13.6 µM (inactive) | GI50 [6]: 11.7 µM (inactive) | GI50 [7]: 13.6 µM (inactive) | GI50 [8]: 12.3 µM (inactive) | GI50 [9]: 16.3 µM (inactive)

CC1=C2C(=CO[C@H](C)[C@H]2C)C(O)=C(C(=O)O)C1=O [CITRININ]
GI50 [2]: 24.5 µM (inactive) | GI50 [3]: 23.8 µM (inactive) | GI50 [4]: 5.55 µM (inactive) | GI50 [5]: 18.2 µM (inactive) | GI50 [6]: 11.5 µM (inactive) | GI50 [8]: 11.2 µM (inactive) | GI50 [9]: 15.2 µM (inactive)

O=c1c(O)c(-c2ccc(O)c(O)c2)oc2cc(O)cc(O)c12 [QUERCETIN]
GI50 [1]: 38.1 µM (inactive) | GI50 [2]: 77.8 µM (inactive) | GI50 [3]: 83.6 µM (inactive) | GI50 [4]: 72.8 µM (inactive) | GI50 [5]: 37.2 µM (inactive) | GI50 [6]: 36.5 µM (inactive) | GI50 [7]: > 100 µM (inactive) | GI50 [8]: > 100 µM (inactive) | GI50 [9]: > 100 µM (inactive)

COc1cc2ccc(=O)oc2cc1O [SCOPOLETIN]
GI50 [2]: 72.4 µM (inactive) | GI50 [3]: 187 µM (inactive) | GI50 [4]: 63.7 µM (inactive) | GI50 [5]: 83.2 µM (inactive) | GI50 [6]: 28.5 µM (inactive) | GI50 [8]: 307 µM (inactive) | GI50 [9]: 150 µM (inactive)

— ChEMBL document CHEMBL1201862, “PubChem BioAssay data set” (2004)
